The values below are quoted from earlier work in patent publication US6350444B1, “Gene therapy for pulmonary edema using adenovirus vectors encoding Na,K-ATPase” (Edema Clearance, Inc., priority 1998, dated 2002).

In one data set the target is rat α1 subunit (Rattus norvegicus, UniProt P06685). The note with it: read-out: IC50 of ouabain.

As to `N=C(N)NC(=O)c1nc(Cl)c(N)nc1N` [amiloride], in the data set with isolated rat lungs, the lung liquid clearance result is on record as “decreased”. In the case of `C[C@@H]1O[C@@H](O[C@H]2C[C@@H](O)[C@]3(CO)[C@H]4[C@H](O)C[C@]5(C)[C@@H](C6=CC(=O)OC6)CC[C@]5(O)[C@@H]4CC[C@]3(O)C2)[C@H](O)[C@H](O)[C@H]1O` [ouabain], the IC50 (in general, the concentration needed to halve the response being measured) at rat α1 subunit was 1000 µM. In addition, in the data set with isolated rat lungs, the lung liquid clearance result is “decreased”.
